Here are results for 26 compounds from patent US20120245176A1, “NOVEL […] WITH S[…] AS BROAD-[…] INFLUENZA ANTIVIRALS” (priority 2010, published 2012).

A short description of data set [1]: Human Liver Microsomal Stability. Conditions: human liver microsomes. (In general: Microsomes from liver hold many membrane-bound enzymes, among them those of drug oxidation.)
A short description of data set [2]: Mouse Liver Microsomal Stability. Conditions: mouse liver microsomes.
In a further data set the test system is A/H5N1/Gull_PA. The data set can be described thus: microbe, parasite or virus in culture. Format: cell-based, influenza virus. As to conditions: read-out: A/H5N1/Gull_PA EC50.
For the next data set, the system named is A/H5N1/Duck_MN. The data set can be described thus: microbe, parasite or virus in culture. As to conditions: read-out: A/H5N1/Duck_MN EC50. Format: cell-based, influenza virus.
A further data set deals with A/H3N2 Brisbane. The data set can be described thus: Antiviral assay in MDCK cells, viral neuraminidase (MUNANA) readout, A/H3N2 Brisbane. It counts as cell-based, influenza A. Conditions: viral NA activity.
The test system of the next data set is A/H5N1/Duck_PA. The data set can be described thus: microbe, parasite or virus in culture. It counts as cell-based, influenza virus. Conditions: read-out: A/H5N1/Duck_PA EC50.
For another data set, the system named is A/H1N1/WSN. The data set can be described thus: Antiviral assay in MDCK cells, viral neuraminidase (MUNANA) readout, A/H1N1/WSN. It counts as cell-based, influenza A. As to conditions: MOI 0.001, 48 hrs post infection, viral NA activity.
The test system of another data set is A/H1N1/Solomon Islands. The data set can be described thus: Antiviral assay in MDCK cells, viral neuraminidase (MUNANA) readout, A/H1N1/Solomon Islands. It counts as cell-based, influenza A. Conditions: viral NA activity.
The mark [3] stands for this setting: MOI 0.001, 48 hrs post infection.
Setting [4] is: Influenza A virus, H5N1, MDCK, 48 h.
The mark [5] stands for this setting: Influenza A virus, H3N2, MOI 0.001, 48 hrs post infection.
The mark [6] stands for this setting: Influenza A virus, H1N1, MOI 0.001, 48 hrs post infection.

Each structure is given as a SMILES string. Like-named read-outs stand apart in the source and are kept apart here.

For the compound `COc1cc(F)ccc1-c1noc(C)c1C(=O)N1CCN(c2ccc([N+](=O)[O-])cc2Cl)CC1` [Example 29], in data set [1], the “Human Liver Microsomal Stability (% Remaining after 10 minutes)” value amounted to 68%. Further, the “Mouse Liver Microsomal Stability (% Remaining after 10 minutes)” value in data set [2] turned out to be 28%.
In the case of `COc1ccccc1-c1nnn(C)c1C(=O)N1CCN(c2ccc([N+](=O)[O-])cc2Cl)CC1` [Example 81], the EC50 in the data set with A/H5N1/Gull_PA is < 0.1 µM; in the data set with A/H5N1/Duck_MN it was < 1 µM; in the data set with A/H3N2 Brisbane (setting [3]), > 10 µM; with A/H5N1/Duck_PA, < 1 µM; in the data set on A/H1N1/WSN, < 0.1 µM; in the data set on A/H1N1/Solomon Islands (setting [3]) it was < 10 µM. For the same compound, in data set [1], the “Human Liver Microsomal Stability (% Remaining after 10 minutes)” value was determined as 73%. Further, in data set [2], the “Mouse Liver Microsomal Stability (% Remaining after 10 minutes)” value was determined as 45%.
Consider `Cc1onc(-c2ccccc2C(N)=O)c1C(=O)N1CCN(c2ccc([N+](=O)[O-])cc2Cl)CC1` [Example 155, 2-(4-(4-(2-chloro-4-nitrophenyl)piperazine-1-carbonyl)-5-methylisoxazol-3-yl)benzamide], for which the “Human Liver Microsomal Stability (% Remaining after 10 minutes)” value in data set [1] was 80%. The “Mouse Liver Microsomal Stability (% Remaining after 10 minutes)” value in data set [2] is reported as 61%.
Consider `COc1ccccc1-c1nnn(C)c1C(=O)N1CCN(c2ncc([N+](=O)[O-])cc2Cl)CC1` [Example 86], for which the EC50 was < 1 µM in the data set with A/H5N1/Gull_PA; < 10 µM in the data set on A/H5N1/Duck_MN; > 10 µM in the data set with A/H3N2 Brisbane (setting [3]); < 10 µM in the data set with A/H5N1/Duck_PA; < 1 µM in the data set with A/H1N1/WSN; < 10 µM with A/H1N1/Solomon Islands (setting [3]).
In the case of `COc1ccccc1-c1n[nH]c(C)c1C(=O)N1CCN(c2ccc([N+](=O)[O-])cc2Cl)CC1` [Example 80], the EC50 in the data set with A/H5N1/Gull_PA is < 1 µM; with A/H5N1/Duck_MN it was < 10 µM; in the data set with A/H3N2 Brisbane (setting [3]) it was > 10 µM; in the data set with A/H5N1/Duck_PA it was < 10 µM; with A/H1N1/WSN it was < 10 µM; in the data set on A/H1N1/Solomon Islands (setting [3]), < 10 µM. Besides, in data set [1], the “Human Liver Microsomal Stability (% Remaining after 10 minutes)” value is on record as 72%. Moreover, in data set [2], the “Mouse Liver Microsomal Stability (% Remaining after 10 minutes)” value came to 65%.
As to `COc1ccccc1-c1noc(C)c1C(=O)N1CCN(c2ccc([N+](=O)[O-])cc2Cl)CC1` [Example 18], the EC50 with A/H5N1/Gull_PA was < 0.1 µM; with A/H5N1/Duck_MN it was < 1 µM; with A/H3N2 Brisbane (setting [3]), < 10 µM; in the data set on A/H5N1/Duck_PA it was < 1 µM; in the data set with A/H1N1/WSN, < 0.1 µM; in the data set with A/H1N1/Solomon Islands (setting [3]) it was < 1 µM.
With `Cc1onc(-c2ccccc2)c1C(=O)N1CCN(c2ccc([N+](=O)[O-])cc2Cl)CC1` [reference compound], the “Human Liver Microsomal Stability (% Remaining after 10 minutes)” value in data set [1] turned out to be 40%. Also, the “Mouse Liver Microsomal Stability (% Remaining after 10 minutes)” value in data set [2] is given as 20%.
Turning to `COc1ccc(NC(C)=O)cc1-c1noc(C)c1C(=O)N1CCN(c2ccc([N+](=O)[O-])cc2Cl)CC1` [Example 165], the EC50 is < 1 µM in the data set with A/H5N1/Gull_PA; < 10 µM in the data set with A/H5N1/Duck_MN; > 10 µM with A/H3N2 Brisbane (setting [3]); < 10 µM in the data set with A/H5N1/Duck_PA; < 1 µM in the data set on A/H1N1/WSN; < 1 µM in the data set on A/H1N1/Solomon Islands (setting [3]).
Turning to `COc1ncccc1-c1noc(C)c1C(=O)N1CCN(c2ccc([N+](=O)[O-])cc2Cl)CC1` [Example 45], the “Human Liver Microsomal Stability (% Remaining after 10 minutes)” value in data set [1] amounted to 56%. In data set [2], the “Mouse Liver Microsomal Stability (% Remaining after 10 minutes)” value is listed as 33%.
The like results for `Cc1onc(-c2ccc(F)cc2)c1C(=O)N1CCN(c2ccc([N+](=O)[O-])cc2Cl)CC1` [Example 27] were, in that order, 66% and 86%.
The like results for `Cc1onc(-c2cccc(Cl)c2)c1C(=O)N1CCN(c2ccc([N+](=O)[O-])cc2Cl)CC1` [Example 28] were, in that order, 94% and 85%.
For `COc1ccc(NS(C)(=O)=O)cc1-c1noc(C)c1C(=O)N1CCN(c2ccc([N+](=O)[O-])cc2Cl)CC1` [Example 163], the “Human Liver Microsomal Stability (% Remaining after 10 minutes)” value in data set [1] stood at 75%. In addition, in data set [2], the “Mouse Liver Microsomal Stability (% Remaining after 10 minutes)” value is given as 49%.
Take `Cc1[nH]nc(-c2ccccc2Cl)c1C(=O)N1CCN(c2ccc([N+](=O)[O-])cc2Cl)CC1` [Example 72]: the EC50 was < 1 µM with A/H5N1/Gull_PA; < 10 µM in the data set on A/H5N1/Duck_MN; > 10 µM in the data set with A/H3N2 Brisbane (setting [3]); < 10 µM with A/H5N1/Duck_PA; < 1 µM with A/H1N1/WSN; > 10 µM with A/H1N1/Solomon Islands (setting [3]). Further, the “Human Liver Microsomal Stability (% Remaining after 10 minutes)” value in data set [1] is 78%. Further, the “Mouse Liver Microsomal Stability (% Remaining after 10 minutes)” value in data set [2] was 61%.
`Cc1cnn(-c2ccccc2Cl)c1C(=O)N1CCN(c2ccc([N+](=O)[O-])cc2Cl)CC1` [Example 77]: the EC50 was < 1 µM in the data set with A/H5N1/Gull_PA; < 10 µM in the data set with A/H5N1/Duck_MN; > 10 µM in the data set on A/H3N2 Brisbane (setting [3]); < 10 µM in the data set with A/H5N1/Duck_PA; < 1 µM in the data set with A/H1N1/WSN; > 10 µM with A/H1N1/Solomon Islands (setting [3]).
`Cc1c[nH]c(-c2ccccc2Cl)c1C(=O)N1CCN(c2ncc(Cl)cc2Cl)CC1` [Example 133]: the EC50 in the data set with A/H5N1/Gull_PA was < 10 µM; in the data set with A/H5N1/Duck_MN it was > 10 µM; in the data set with A/H3N2 Brisbane (setting [3]) it was < 10 µM; with A/H5N1/Duck_PA, > 10 µM; in the data set with A/H1N1/WSN, < 1 µM; in the data set on A/H1N1/Solomon Islands (setting [3]), < 10 µM.
`COc1ccc(NS(C)(=O)=O)cc1-c1noc(C)c1C(=O)N1CCN(c2ncc(Cl)cc2Cl)CC1` [Example 161, N-(3-(4-(4-(3,5-dichloropyridin-2-yl)piperazine-1-carbonyl)-5-methylisoxazol-3-yl)-4-methoxyphenyl)methanesulfonamide]: in data set [1], the “Human Liver Microsomal Stability (% Remaining after 10 minutes)” value turned out to be 70%. In data set [2], the “Mouse Liver Microsomal Stability (% Remaining after 10 minutes)” value is 8%.
For `Cc1onc(-c2ccccc2Cl)c1C(=O)N1CCN(c2ccc([N+](=O)[O-])cc2F)CC1` [Example 4], in data set [1], the “Human Liver Microsomal Stability (% Remaining after 10 minutes)” value amounted to 72%. Further, the “Mouse Liver Microsomal Stability (% Remaining after 10 minutes)” value in data set [2] stood at 86%.
The like results for `COc1ccc(N)cc1-c1noc(C)c1C(=O)N1CCN(c2ncc(Cl)cc2Cl)CC1` [Example 159, (3-(5-amino-2-methoxyphenyl)-5-methylisoxazol-4-yl)(4-(3,5-dichloropyridin-2-yl)piperazin-1-yl)methanone] were, in that order, 62% and 36%.
Regarding `Cc1c[nH]c(-c2ccccc2Cl)c1C(=O)N1CCN(c2ccc([N+](=O)[O-])cc2Cl)CC1` [Example 75, (4-(2-chloro-4-nitrophenyl)piperazin-1-yl)(2-(2-chlorophenyl)-4-methyl-1H-pyrrol-3-yl)methanone], the EC50 is < 0.1 µM with A/H5N1/Gull_PA (setting [4]); < 1 µM in the data set with A/H5N1/Duck_MN (setting [4]); > 10 µM in the data set with A/H3N2 Brisbane (setting [5]); < 1 µM in the data set with A/H5N1/Duck_PA (setting [4]); < 0.1 µM in the data set with A/H1N1/WSN (Influenza A virus); < 10 µM in the data set with A/H1N1/Solomon Islands (setting [6]).
Consider `Cc1onc(-c2ccccc2O)c1C(=O)N1CCN(c2ncc(Cl)cc2Cl)CC1` [Example 142, (4-(3,5-dichloropyridin-2-yl)piperazin-1-yl)(3-(2-hydroxyphenyl)-5-methylisoxazol-4-yl)methanone], for which, in data set [1], the “Human Liver Microsomal Stability (% Remaining after 10 minutes)” value was determined as 80%. The “Mouse Liver Microsomal Stability (% Remaining after 10 minutes)” value in data set [2] turned out to be 34%.
As for `Cc1onc(-c2ccccc2Cl)c1C(=O)N1CCN(c2ccc([N+](=O)[O-])cc2Cl)CC1` [reference compound], in data set [1], the “Human Liver Microsomal Stability (% Remaining after 10 minutes)” value was found to be 6%. The “Mouse Liver Microsomal Stability (% Remaining after 10 minutes)” value in data set [2] was 0%.
Take `Cc1cc(Br)cnc1N1CCN(C(=O)c2c(-c3ccccc3Cl)noc2C)CC1` [Example 132, (4-(5-bromo-3-methylpyridin-2-yl)piperazin-1-yl)(3-(2-chlorophenyl)-5-methylisoxazol-4-yl)methanone]: the EC50 is > 10 µM in the data set with A/H5N1/Gull_PA (setting [4]); > 10 µM in the data set on A/H5N1/Duck_MN (setting [4]); > 10 µM with A/H3N2 Brisbane (setting [5]); > 10 µM in the data set with A/H5N1/Duck_PA (setting [4]); < 1 µM with A/H1N1/WSN (Influenza A virus); < 10 µM in the data set with A/H1N1/Solomon Islands (setting [6]).
`COc1ccc(-c2noc(C)c2C(=O)N2CCN(c3ccc([N+](=O)[O-])cc3Cl)CC2)c(Cl)c1` [Example 31]: the EC50 in the data set on A/H5N1/Gull_PA was < 0.1 µM; in the data set with A/H5N1/Duck_MN it was < 1 µM; with A/H3N2 Brisbane (setting [3]), > 10 µM; with A/H5N1/Duck_PA, < 1 µM; in the data set on A/H1N1/WSN it was < 0.1 µM; with A/H1N1/Solomon Islands (setting [3]) it was < 1 µM.
As for `COc1ccc2ccccc2c1-c1noc(C)c1C(=O)N1CCN(c2ccc([N+](=O)[O-])cc2Cl)CC1` [Example 63], the EC50 with A/H5N1/Gull_PA was < 0.1 µM; in the data set on A/H5N1/Duck_MN it was < 1 µM; with A/H3N2 Brisbane (setting [3]), > 10 µM; in the data set with A/H5N1/Duck_PA, < 1 µM; with A/H1N1/WSN, < 0.1 µM; with A/H1N1/Solomon Islands (setting [3]), < 1 µM.
For `COc1ccccc1-c1noc(C)c1C(=O)N1CCN(c2ncc(Cl)cc2Br)CC1` [Example 129], the EC50 was < 1 µM in the data set with A/H5N1/Gull_PA; < 10 µM in the data set with A/H5N1/Duck_MN; < 10 µM with A/H3N2 Brisbane (setting [3]); < 10 µM in the data set on A/H5N1/Duck_PA; < 1 µM with A/H1N1/WSN; < 10 µM in the data set on A/H1N1/Solomon Islands (setting [3]).
As for `COc1ccccc1-c1n[nH]c(C)c1C(=O)N1CCN(c2ncc([N+](=O)[O-])cc2Cl)CC1` [Example 83], in data set [1], the “Human Liver Microsomal Stability (% Remaining after 10 minutes)” value amounted to 52%. Also, the “Mouse Liver Microsomal Stability (% Remaining after 10 minutes)” value in data set [2] was 16%.
